# Calls of active or inactive are those of the source. No cut-off for these calls is given here. Residues, ends and D or L forms follow the SMILES beside them.
# Key:
# [1] = molecular target: T1, Disks large homolog 4 (Homo sapiens, UniProt P78352); experiment: Displacement of Cy5-GluN2B from N-terminal His-tagged full length human PSD-95alpha PDZ2 domain (155 to 249 residues) without exon 4b expressed in Escherichia coli BL21(DE3)pLysS by fluorescence polarization assay
# Target sequence in this assay (P78352 whole entry, the tested form may be a part): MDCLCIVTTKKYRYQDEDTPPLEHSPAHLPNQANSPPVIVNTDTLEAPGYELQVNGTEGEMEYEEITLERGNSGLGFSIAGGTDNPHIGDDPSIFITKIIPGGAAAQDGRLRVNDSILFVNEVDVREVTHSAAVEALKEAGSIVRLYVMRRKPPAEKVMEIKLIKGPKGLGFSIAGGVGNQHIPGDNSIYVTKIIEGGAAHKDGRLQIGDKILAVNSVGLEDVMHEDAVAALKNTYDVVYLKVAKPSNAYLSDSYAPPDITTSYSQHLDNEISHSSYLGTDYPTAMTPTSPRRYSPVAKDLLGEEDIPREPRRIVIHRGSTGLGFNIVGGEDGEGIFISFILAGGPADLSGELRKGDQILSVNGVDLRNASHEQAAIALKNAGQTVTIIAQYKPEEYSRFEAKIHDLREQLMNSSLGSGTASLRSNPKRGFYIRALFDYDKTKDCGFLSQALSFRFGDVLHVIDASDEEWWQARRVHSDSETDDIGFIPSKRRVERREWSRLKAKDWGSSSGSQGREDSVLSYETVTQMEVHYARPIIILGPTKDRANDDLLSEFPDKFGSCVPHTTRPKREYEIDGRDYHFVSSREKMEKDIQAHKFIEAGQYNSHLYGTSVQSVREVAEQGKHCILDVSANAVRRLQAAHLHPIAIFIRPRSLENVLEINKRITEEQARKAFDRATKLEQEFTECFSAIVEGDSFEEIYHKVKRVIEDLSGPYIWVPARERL
# [2] = molecular target: T1, Disks large homolog 4; experiment: Displacement of Cy5-GluN2B from N-terminal His-tagged human full length PSD-95alpha PDZ1 domain (61 to 151 residues) without exon 4b expressed in Escherichia coli BL21(DE3)pLysS by fluorescence polarization assay
# Target sequence in this assay (P78352 whole entry, the tested form may be a part): as above
# [3] = molecular target: T1, Disks large homolog 4; experiment: Displacement of Cy5-CRIPT from N-terminal His-tagged human full length PSD-95alpha PDZ3 domain (309 to 401 residues) without exon 4b expressed in Escherichia coli BL21(DE3)pLysS by fluorescence polarization assay
# Target sequence in this assay (P78352 whole entry, looked up, the tested form may be a part): as the sequence (P78352 whole entry, the tested form may be a part) above
# [4] = molecular target: Disks large homolog 4 (Rattus norvegicus, UniProt P31016); experiment: Inhibition of rat PSD-95 PDZ1 domain interaction with mouse 5HT2A receptor after 18 hrs by pull down assay
# Disks large homolog 4 (Rattus norvegicus, UniProt P31016), sequence (P31016 whole entry, the tested form may be a part): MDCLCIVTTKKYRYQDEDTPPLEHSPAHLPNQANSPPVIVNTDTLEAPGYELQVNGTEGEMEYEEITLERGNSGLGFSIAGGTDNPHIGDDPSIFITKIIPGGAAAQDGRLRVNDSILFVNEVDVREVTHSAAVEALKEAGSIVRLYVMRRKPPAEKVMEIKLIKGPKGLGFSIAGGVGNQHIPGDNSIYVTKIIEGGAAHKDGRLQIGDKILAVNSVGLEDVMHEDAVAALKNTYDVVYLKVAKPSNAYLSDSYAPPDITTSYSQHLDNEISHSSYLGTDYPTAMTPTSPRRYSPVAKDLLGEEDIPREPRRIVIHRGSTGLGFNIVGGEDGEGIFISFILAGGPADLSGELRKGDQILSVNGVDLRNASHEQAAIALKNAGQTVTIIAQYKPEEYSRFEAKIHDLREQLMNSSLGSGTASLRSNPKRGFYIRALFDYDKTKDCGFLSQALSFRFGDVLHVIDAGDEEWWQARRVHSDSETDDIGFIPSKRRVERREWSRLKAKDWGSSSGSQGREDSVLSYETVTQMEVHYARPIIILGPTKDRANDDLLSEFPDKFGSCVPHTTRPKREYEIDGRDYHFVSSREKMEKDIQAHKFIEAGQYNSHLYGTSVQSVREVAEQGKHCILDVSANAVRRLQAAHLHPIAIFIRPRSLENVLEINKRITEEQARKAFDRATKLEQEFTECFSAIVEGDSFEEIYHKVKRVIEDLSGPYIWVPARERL
# [5] = molecular target: T1, Disks large homolog 4; experiment: Ratio of Kd for N-terminal His-tagged full length human PSD-95alpha PDZ2 domain (155 to 249 residues) without exon 4b expressed in Escherichia coli BL21(DE3)pLysS by […] method to Ki for N-terminal His-tagged full length human PSD-95alpha PDZ2 domain (155 to 249 residues) without exon 4b expressed in Escherichia coli BL21(DE3)pLysS by fluorescence polarization assay
# Target sequence in this assay (P78352 whole entry, looked up, the tested form may be a part): as the sequence (P78352 whole entry, the tested form may be a part) above
# [6] = molecular target: T1, Disks large homolog 4; experiment: Binding affinity to N-terminal His-tagged full length human PSD-95alpha PDZ2 domain (155 to 249 residues) without exon 4b expressed in Escherichia coli BL21(DE3)pLysS by […] method
# Target sequence in this assay (P78352 whole entry, the tested form may be a part): as above
# [7] = molecular target: T1, Disks large homolog 4; experiment: Potency index, ratio of indole 1 Ki to compound Ki for N-terminal His-tagged full length human PSD-95alpha PDZ2 domain (155 to 249 residues) without exon 4b expressed in Escherichia coli BL21(DE3)pLysS
# Target sequence in this assay (P78352 whole entry, looked up, the tested form may be a part): as the sequence (P78352 whole entry, the tested form may be a part) above
Structure (SMILES),Ki [1] [µM],Ki [2] [µM],inhibition [3],IC50 [4] [µM],Ratio [5],Kd [6] [µM],Ratio Ki [7]
CC(C)[C@H](NC(=O)[C@H](C)NC(=O)[C@@H](N)CO)C(=O)O (H-Ser-Ala-Val-OH),229,480,–,–,–,–,–
Cc1c(C(=O)O)[nH]c2cc(C(=O)O)c(O)cc12,530,> 1000,inactive,–,–,–,–
Cc1c(C(=O)O)n(CCCC(=O)O)c2cc(C(=O)O)c(OCc3ccccc3)cc12,> 500,> 1000,inactive,190,–,–,–

# More lines, now with the values ahead:
Ki [1] [µM],Ki [2] [µM],inhibition [3],IC50 [4] [µM],Ratio [5],Kd [6] [µM],Ratio Ki [7],Structure (SMILES)
> 500,–,–,–,–,–,–,CC(C)[C@H](NC(=O)c1cn([C@H](C(=O)O)C(C)C)nn1)C(=O)O
38,74,–,–,2,101,–,CC(C)[C@H](NC(=O)[C@H](C)NC(=O)[C@@H](N)[C@@H](C)O)C(=O)O (H-Thr-Ala-Val-OH)
> 500,–,–,–,–,–,–,CC(C)[C@@H](C(=O)O)n1cc([C@H](C)NC(=O)[C@@H](N)[C@@H](C)O)nn1
289,> 500,inactive,–,2,598,2,CC(C)[C@H](NC(=O)[C@H](C)n1cc([C@@H](N)[C@@H](C)O)nn1)C(=O)O
